Literature values in US9206466B2, “Compositions and methods for regulating peptidyltransferase activity and uses thereof” (University of Maryland, priority 2004, dated 2015).

Experiments:
[1] = tested on: killer virus; conditions: yeast; Dinman et al., 1997
[2] = tested on: −1 PRF; conditions: yeast; Dinman et al., 1997

CSC[S@+]([O-])C[C@H](CO)NC(=O)/C=C/c1c(C)[nH]c(=O)[nH]c1=O [sparsomycin]
maintenance of the killer virus [1]: loss of the killer virus | −1 PRF efficiencies [2]: promoted increased −1 PRF efficiencies
